Data reported in patent US20220226484A1, “THERAPEUTIC PEPTIDES” (COHBAR, INC., priority 2019, published 2022).
Non-standard residues stand in square brackets, D forms with d. Primed or numbered codes have the meaning given here. No end group written: not given here. PEG12′ = not defined here

How the values were obtained:
Type in all cases: cell-based
[1] = system: 3T3-L1 Mouse Adipocytes; assay: Insulin-dependent effect on free fatty acid levels in cultured mouse adipocytes; conditions: for Free Fatty Acid Levels, MEAN % ISO, +Insulin: peptide 10 μM + insulin 0.25 nM, percent of isoproterenol (0.1 nM)+insulin (0.25 nM); for Free Fatty Acid Levels, MEAN % ISO, +Insulin / Free Fatty Acid Levels, MEAN % ISO, −Insulin: 3 hours; for Free Fatty Acid Levels, MEAN % ISO, −Insulin: peptide 10 μM alone, percent of isoproterenol (0.1 nM) treated control cells
Protocol: The effect of the peptides on fatty acid metabolism was assessed in the absence and presence of insulin using an assay of free fatty acid levels in cultured cells such as mouse adipocytes. Peptides were initially prepared as 10 mM stock in DMSO and used at a final concentration of 10 μM (0.1% DMSO). […] Insulin (0.25 nM) was used as a partial inhibitor and insulin (10 nM) was used as a potent inhibitor of isoproterenol stimulated fatty acid production. Mouse 3T3-L1 cells purchased from ZenBio (Research Triangle Park, N.C.) were seeded at 3,000 cells per well on 96-well plates in Pre-Adipocyte Medium (Zen-Bio) and grown to confluence at 37° C. in a humidified atmosphere of 5% CO2/95% air. Two days after confluence, cells were placed in Adipocyte Differentiation Medium (Zen-Bio) and cultured for three additional days at 37° C. in a humidified atmosphere of 5% CO2/95% air. The culture medium was then partially replaced with Adipocyte Maintenance Medium (Zen-Bio) and the cells maintained at 37° C. in a humidified atmosphere of 5% CO2/95% air with partial medium replacement every other day. At 12 day of differentiation, 96-well cultures were transferred to Adipocyte Maintenance Medium without insulin and placed at 37° C. in a humidified atmosphere of 5% CO2/95% air for two days. Following this incubation period, the medium was removed from 14 day differentiated cultures and replaced with Assay Buffer (Zen-Bio) containing peptides (10 μM), insulin (0.25 nM or 10 nM), isoproterenol (0.1 nM) as appropriate. […] isoproterenol was added to all wells except untreated controls. Insulin at 0.1 nM and 10 nM was added to control wells. Peptides (10 μM) in the absence or presence of insulin (0.25 nM) were added to test wells. Cells in the presence of compounds were placed at 37° C. in a humidified atmosphere of 5% CO2/95% air for 3 hours. At the end of the final 3 h incubation, conditioned assay buffer was removed from each well and place in a fresh 96-well plate for quantitation of free fatty acid content. Free fatty acid concentrations in the assay buffer samples were determined using a Free Fatty Acid Assay kit (Zen-Bio) according to the manufacturer's instructions using a Cytation 3 plate reader at 540 nm (BioTek, Winooski, VD. Absorbance values were corrected for untreated background and expressed as a percent of isoproterenol (0.1 nM) treated control cells for peptides alone or isoproterenol (0.1 nM)+insulin (0.25 nM) for peptides in presence of insulin (0.25 nM). Treatment with isoproterenol […] alone was used as the free fatty acid level stimulatory control. The relative standard deviation of the isoproterenol control was <10%. […] Free fatty acid levels for insulin (10 nM) treatment were <5% of the isoproterenol control value. Free fatty acid levels for insulin (0.25 nM) treatment were 60-80% of the isoproterenol control value.

[2] = system: H4IIE Rat Hepatoma Cells; assay: Insulin-dependent effect on glucose production by cultured rat liver cells; conditions: for Glucose Levels, MEAN % Control, +Insulin: peptide 10 μM + insulin 800 pM, percent of insulin (800 pM); for Glucose Levels, MEAN % Control, +Insulin / Glucose Levels, MEAN % Control, −Insulin: 24 hour; for Glucose Levels, MEAN % Control, −Insulin: peptide 10 μM alone, percent of untreated control cells
Protocol: The effect of the peptides on glucose production was assessed in the absence and presence of insulin using an assay of glucose levels in cultured cells such as rat hepatocytes. Peptides were initially prepared as 10 mM stock in DMSO and used at a final concentration of 10 μM (0.1% DMSO). Insulin (800 pM) was used as a partial inhibitor of glucose production. H4-IIE cells purchased from ATCC (Manassas, Va.) were seeded at 100,000 cells/well in standard medium (DMEM/high glucose+10% FBS+1× Glutamax+antibiotics) on 96-well plates and allowed to adhere overnight at 37° C. in a humidified atmosphere of 5% CO2/95% air. Approximately 24 h after seeding, the medium was removed, cells rinsed with glucose free DMEM, and Glucose Production Medium (glucose free DMEM+2 mM sodium pyruvate+10 mM sodium lactate) was added. The cultures were placed at 37° C. in a humidified atmosphere of 5% CO2/95% air overnight. The next morning, the medium was removed and fresh Glucose Production Medium containing compounds was added. Insulin at 800 pM was added to control wells. Peptides (10 μM) in the absence or presence of insulin (800 pM) were added to test wells. Cells in the presence of compounds were placed at 37° C. in a humidified atmosphere of 5% CO2/95% air overnight. After 24 hour incubation, conditioned medium from each well was transferred to a fresh 96-well plate for quantitation of glucose content. Quantitation of glucose levels was determined using an Amplex Red Glucose Assay kit (Abacm; Cambridge, Mass.) according to the manufacturer's instructions using a Cytation 3 plate reader at 570 nm (BioTek, Winooski, Vt.). Absorbance values were expressed as a percent of untreated control cells (maximum glucose production) for peptide alone samples or insulin (800 pM) for peptides in the presence of insulin (800 pM. Glucose levels for insulin (800 pM) treatment were ˜80-90% of the untreated control values. The results are reported in Table 15.

[3] = system: 3T3-L1 Mouse Adipocytes; assay: Free fatty acid levels in cultured mouse adipocytes; conditions: insulin 100 nM, 1 nM isoproterenol
Protocol: The effect of the peptides on fatty acid metabolism can be assessed using an assay of free fatty acid levels in cultured cells such as mouse adipocytes. Peptides were initially prepared as 10 mM stock in DMSO and used at a final concentration of 10 μM (0.1% DMSO). […] Mouse 3T3-L1 cells purchased from ZenBio were seeded at 3,000 cells per well in 96-well plates in Pre-adipocyte Medium (Zen-Bio) and grown to confluence at 37° C. in a humidified atmosphere of 5% CO2/95% air. Two days after confluence, cells were placed in Adipocyte Differentiation Medium (Zen-Bio) and cultured for three additional days at 37° C. in a humidified atmosphere of 5% CO2/95% air. The culture media was then replaced with Adipocyte Maintenance Medium (Zen-Bio) and the cells maintained for an additional 9-12 days at 37° C. in a humidified atmosphere of 5% CO2/95% air with partial medium replacement every other day. Following 12-15 days of differentiation, test peptides were added at a final concentration of 10 μM in 0.1% DMSO and incubated for 20-22 hours in Adipocyte Maintenance Medium at 37° C. in a humidified atmosphere of 5% CO2/95% air. After 20-22 hours, 1 nM isoproterenol was added to all wells except untreated controls and test peptides were replenished. Insulin at 100 nM was added to control wells. Cells were incubated for 3 hours in Assay Buffer (Zen-Bio) at 37° C. in a humidified atmosphere of 5% CO2/95% air. Free fatty acid concentrations in the media were determined using a Free Fatty Acid Assay kit (Zen-Bio) according to the manufacturer's instructions using a Cytation 3 plate reader at 540 nm (BioTek, Winooski, Vt.). Absorbance values were corrected for untreated background and expressed relative to isoproterenol treated cells. Treatment with isoproterenol (1 nM) alone was used as the free fatty acid level stimulatory control. The relative standard deviation of the isoproterenol control was <10%. […] Free fatty acid levels for insulin (100 nM) treatment were <5% of the isoproterenol control value.
The effect of the peptides on fatty acid metabolism was assessed using an assay of free fatty acid levels in cultured cells such as mouse adipocytes. Peptides were initially prepared as 10 mM stock in DMSO and used at a final concentration of 10 μM (0.1% DMSO). […] Mouse 3T3-L1 cells purchased from ZenBio were seeded at 3,000 cells per well in 96-well plates in Pre-adipocyte Medium (Zen-Bio) and grown to confluence at 37° C. in a humidified atmosphere of 5% CO2/95% air. Two days after confluence, cells were placed in Adipocyte Differentiation Medium (Zen-Bio) and cultured for three additional days at 37° C. in a humidified atmosphere of 5% CO2/95% air. The culture media was then replaced with Adipocyte Maintenance Medium (Zen-Bio) and the cells maintained for an additional 9-12 days at 37° C. in a humidified atmosphere of 5% CO2/95% air with partial medium replacement every other day. Following 12-15 days of differentiation, test peptides were added at a final concentration of 10 μM in 0.1% DMSO and incubated for 20-22 hours in Adipocyte Maintenance Medium at 37° C. in a humidified atmosphere of 5% CO2/95% air. After 20-22 hours, 1 nM isoproterenol was added to all wells except untreated controls and test peptides were replenished. Insulin at 100 nM was added to control wells. Cells were incubated for 3 hours in Assay Buffer (Zen-Bio) at 37° C. in a humidified atmosphere of 5% CO2/95% air. Free fatty acid concentrations in the media were determined using a Free Fatty Acid Assay kit (Zen-Bio) according to the manufacturer's instructions using a Cytation 3 plate reader at 540 nm (BioTek, Winooski, Vt.). Absorbance values were corrected for untreated background and expressed relative to isoproterenol treated cells. Treatment with isoproterenol (1 nM) alone was used as the free fatty acid level stimulatory control. The relative standard deviation of the isoproterenol control was <10%. […]

Substance | Free Fatty Acid Levels, MEAN % ISO, +Insulin [1] | Free Fatty Acid Levels, MEAN % ISO, −Insulin [1] | Glucose Levels, MEAN % Control, +Insulin [2] | Glucose Levels, MEAN % Control, −Insulin [2] | Free fatty acid levels, % of the isoproterenol control value [3] | Free fatty acid levels, % of the isoproterenol control value ([1]; insulin 0.25 nM) | Free fatty acid levels, % of the isoproterenol control value ([1]; insulin 10 nM) | Glucose levels, % of the untreated control values ([2]; insulin 800 pM)
RVIRMCLNVGLEGEL(dA) (RVIRMCLNVGLEGEL[dA]) [SEQ ID NO: 19] | 24.7% | 67.1% | 3.7% | 12.5% | – | – | – | –
RVIRMCLNVGLNGE [SEQ ID NO: 21] | 40.0% | 102% | 78.2% | 102% | – | – | – | –
insulin: highly potent positive control for decreasing free fatty acid levels; partial inhibitor of glucose production | – | – | – | – | < 5% | 60-80% | < 5% | 80-90%
{PEG12}KRVIRMCLNVGLLGEL(dA)E ([PEG12′]KRVIRMCLNVGLLGEL[dA]E) [SEQ ID NO: 18] | 93.6% | 107% | 95.4% | 101% | – | – | – | –
